Literature values, collected in patent publication US10391078B2, “Methods for the treatment of mast cell related disorders with mast cell stabilizers” (Respivant Sciences GmbH, priority 2015, dated 2019).
Like-named read-outs stand apart in the source and are kept apart here.

oral bioavailability: less than 1%
oral bioavailability (listed as cromolyn): about 1%
SMILES: O=C(O)c1cc(=O)c2c(OCC(O)COc3cccc4oc(C(=O)O)cc(=O)c34)cccc2o1 [cromolyn sodium]
